The values below come from patent US12398121B2 (Nuvation Bio Inc., priority 2018, dated 2025).

Where only a bound is given, the exact number is not on record here.

Assay [1] addresses T1, AR in LNCaP cytosol (Homo sapiens, UniProt P10275, T878A).
T1 construct: endogenous in cells; host or cells: LNCaP cytosol
T1 sequence (P10275 1-920 T878A): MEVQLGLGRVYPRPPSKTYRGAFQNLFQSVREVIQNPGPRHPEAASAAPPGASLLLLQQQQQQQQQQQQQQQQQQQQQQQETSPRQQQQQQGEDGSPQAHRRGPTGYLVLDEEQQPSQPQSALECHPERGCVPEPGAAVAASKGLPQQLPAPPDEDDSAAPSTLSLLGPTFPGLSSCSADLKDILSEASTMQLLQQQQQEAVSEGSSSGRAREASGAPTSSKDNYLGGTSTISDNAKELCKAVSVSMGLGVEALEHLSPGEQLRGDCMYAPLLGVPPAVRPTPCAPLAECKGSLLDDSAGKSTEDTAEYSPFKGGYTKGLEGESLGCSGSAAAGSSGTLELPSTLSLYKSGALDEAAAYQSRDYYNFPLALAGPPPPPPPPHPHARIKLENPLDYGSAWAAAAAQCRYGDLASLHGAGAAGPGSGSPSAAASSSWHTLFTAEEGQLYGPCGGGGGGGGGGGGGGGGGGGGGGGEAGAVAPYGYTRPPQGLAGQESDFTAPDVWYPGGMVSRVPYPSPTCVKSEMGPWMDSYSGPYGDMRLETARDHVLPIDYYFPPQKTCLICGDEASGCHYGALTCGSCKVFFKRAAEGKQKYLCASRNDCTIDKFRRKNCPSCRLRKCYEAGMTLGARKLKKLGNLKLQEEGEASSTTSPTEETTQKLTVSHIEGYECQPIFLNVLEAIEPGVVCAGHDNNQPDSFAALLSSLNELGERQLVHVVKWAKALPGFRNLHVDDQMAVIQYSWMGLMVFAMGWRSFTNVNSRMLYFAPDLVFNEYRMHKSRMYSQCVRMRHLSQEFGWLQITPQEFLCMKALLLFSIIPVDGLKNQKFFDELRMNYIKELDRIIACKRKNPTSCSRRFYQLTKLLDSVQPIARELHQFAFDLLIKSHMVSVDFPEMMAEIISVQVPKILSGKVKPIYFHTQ
Briefly: AR binding assay (3H-methyltrienolone displacement). As to the method: The following methods are for evaluating the in vitro biology properties of the test articles. • a. RBC HotSpot Poly(ADP-ribose) Polymerases 1 (PARP1) and Poly(ADP-ribose) Polymerases 2 (PARP2) Assays: The assay principle is radioisotope-based filter binding assay where incorporation of radioisotope-labeled NAD^+ into the substrate captured on filter is detected after washout free NAD^+. Data were analyzed using Excel and GraphPad Prism software for IC50 curve fits. Each assay was conducted with PJ34 as a positive control. • i. PARP1 assay: Human recombinant PARP1 at a final concentration of 2.5 nM was combined with histone H4 (20 μM) and test articles at various concentrations in reaction buffer (50 mM Tris-HCL, pH 8.0, 50 mM NaCl, 10 mM MgCl2, 1 mM DTT, 1% DMSO, and 20 μg/mL activated DNA). The solution was inoculated for 20 min at room temperature and the reaction initiated by adding [adenylate-^32P]-Nicotinamide Adenine Dinucleotide, ^32P-NAD^+ at a final concentration of 10 μM. After incubation for 2 hour at room temperature, the reaction mixture was filtered and washed with 0.75% phosphoric acid for radioactivity detection. • ii. PARP2 assay: Human recombinant PARP2 at a final concentration of 2.5 nM was combined with histone H3 (20 μM) and test articles at various concentrations in reaction buffer (50 mM Tris-HCL, pH 8.0, 50 mM NaCl, 10 mM MgCl2, 1 mM DTT, 1% DMSO, and 20 μg/mL activated DNA). The solution was inoculated for 20 min at room temperature and the reaction was initiated by adding [adenylate-^32P]-Nicotinamide Adenine Dinucleotide, ^32P-NAD^+ at a final concentration of 10 μM. After incubation for 2 hour at room temperature, the reaction mixture was filtered and washed with 0.75% phosphoric acid for radioactivity detection. • b. AR binding assay: AR in LNCaP cytosol was used for determining the binding affinity of test articles and the reference compound—progesterone (Sigma, Cat: E2785, St. Louis, MO). IC50s were determined using 8 concentrations/compound. Cytosol was plated at 200 μg/well (100 μL) into a 96-well conical polypropylene plate (Agilent, Cat: 5042-1385, Santa Clara, CA) and mixed with 3 μL of test compound. After adding 100 μL of ^3H-methyltrienolone (PerkinElmer, Cat: NET590250UC, San Jose, CA), the plate was sealed and shaken at 300 rpm at 4° C. for 24 hours. Post incubation, 100 μL of radioligand adsorption buffer containing 10 mM Tris-HCl, pH 7.4; 1.5 mM EDTA; 1 mM DTT; 0.25% charcoal; 0.0025% dextran was added to individual well. Plate was shaken for 15 min at 4′C followed by centrifugation at 3000 rpm for 30 min at 4° C. 150 μL of supernatant was transferred into scint-tube (PerkinElmer, Cat: 6000192) and mixed with 2 mL of Ultima Gold Cocktail (PerkinElmer, Cat: 6013329). Radioactivity was counted using a TriCarb 2910 TR scintillation counter (PerkinElmer). Inhibition of the radioactivity by test articles were calculated using the equation below: % Inhibition=(1−(Assay well−Average_LC)/(Average_HC−Average_LC))×100%.
IC50 values were calculated and graphed using the model “log(inhibitor) vs. response—Variable slope” included in GraphPad Prism 5 (San Diego, CA). The Ki values were further calculated using the equation below where [L] was the radioligand concentration (1 nM) using in this study. Kd value was 0.332 nM. Ki=IC50/(1+[L]/Kd) c. AR transactivation: Human AR cloned into a CMV vector backbone was used for the transactivation study. HEK-293 cells were plated at 80,000 cells per well of a 24 well plate in DME+5% csFBS. Twenty four hours later, the cells were transfected using Lipofectamine (Invitrogen, Carlsbad, CA) with 0.25 μg GRE-LUC, 0.01 μg CMV-LUC (renilla luciferase) and 25 ng of the AR in OPTIMEM medium. The cells were treated 24 hrs after transfection with various ligands (10^−12 to 10^−5 M final concentrations) and luciferase assay were performed 48 hours after transfection. […]

The target in assay [2] is T2, DNA-PK (Homo sapiens, UniProt P78527).
T2 construct: purchased Invitrogen, Carlsbad, CA PR9107A
Briefly: DNA-PK inhibition (Reaction Biology HotSpot Kinase Assay, radioisotope filter binding). The class given is biochemical. Conditions: 5 nM DNA-PK, 20 μM DNA-PKtide, 33P-ATP.

For the compound `CCN1C(=O)CNc2ncc(-c3ccc(-c4ncn(CCCCCCNC(=O)c5ccc(N6C(=S)N(c7ccc(C#N)c(C(F)(F)F)c7)C(=O)C6(C)C)cc5F)n4)nc3C)nc21` [Compound 3.1, 4-(3-(4-cyano-3-(trifluoromethyl)phenyl)-5,5-dimethyl-4-oxo-2-thioxoimidazolidin-1-yl)-N-(6-(3-(5-(8-ethyl-7-oxo-5,6,7,8-tetrahydropyrazino[2,3-b]pyrazin-2-yl)-6-methylpyridin-2-yl)-1H-1,2,4-triazol-1-yl)hexyl)-2-fluorobenzamide], the Ki in assay [1] was determined as 0.021 µM. Further, in assay [2], the IC50 was > 10 µM.
In assay [1], `CCN1C(=O)CN(CCCCCCNC(=O)c2ccc(N3C(=S)N(c4ccc(C#N)c(C(F)(F)F)c4)C(=O)C3(C)C)cc2F)c2ncc(-c3ccc(-c4nc[nH]n4)nc3C)nc21` [Compound 3.2, 4-(3-(4-cyano-3-(trifluoromethyl)phenyl)-5,5-dimethyl-4-oxo-2-thioxoimidazolidin-1-yl)-N-(6-(4-ethyl-6-(2-methyl-6-(1H-1,2,4-triazol-3-yl)pyridin-3-yl)-3-oxo-3,4-dihydropyrazino[2,3-b]pyrazin-1(2H)-yl)hexyl)-2-fluorobenzamide] showed a Ki of 0.019 µM. Moreover, the IC50 in assay [2] was > 10 µM.
